As a reminder, the MIC is the least concentration at which growth counts as inhibited. Lower therefore signals a more susceptible organism.

Among the test systems are Escherichia coli B; Pseudomonas aeruginosa; Bacillus subtilis 168; Staphylococcus aureus; Escherichia coli JW0013; Bacillus subtilis; Acinetobacter baumannii; Escherichia coli UB1005; Escherichia coli.
Holding throughout (test): ≥ marks a high value that may be exact or a test limit, other limits are often not marked, values filed in µg/mL are converted to µM
In assay [1] the test system is Candida albicans ATCC 2002.
In assay [2] the test system is Staphylococcus aureus ATCC 2592.
Assay [3] relates to Escherichia coli ATCC 25922.
Assay [4] concerns Pseudomonas aeruginosa ATCC 9027.
In assay [5] the test system is Staphylococcus aureus ATCC 29213.
Assay [6] relates to Staphylococcus aureus ATCC 25923.
Assay [7] deals with Staphylococcus epidermidis ATCC 12228.
Assay [8] concerns Salmonella enterica subsp. enterica serovar Typhimurium C77-31.

In brackets after ≈: the same amount, converted by molar mass. Some results are limits rather than exact numbers.

Consider `CC[C@H](C)[C@H](NC(=O)[C@H](CCCN=C(N)N)NC(=O)[C@@H](NC(=O)[C@@H]1CCCN1C(=O)[C@@H](NC(=O)[C@@H](NC(=O)[C@H](CCC(N)=O)NC(=O)[C@@H]1CCCN1C(=O)[C@@H](NC(=O)[C@@H](NC(=O)[C@H](Cc1cnc[nH]1)NC(=O)[C@@H]1CCCN1C(=O)[C@@H]1CCCN1C(=O)[C@@H](NC(=O)CNC(=O)[C@H](Cc1c[nH]c2ccccc12)NC(=O)[C@H](C)NC(=O)[C@H](CCCCN)NC(=O)[C@H](C)N)[C@@H](C)CC)C(C)C)[C@@H](C)CC)[C@@H](C)CC)C(C)C)C(C)C)C(=O)N[C@@H](CCCN=C(N)N)C(=O)N1CCC[C@H]1C(=O)N[C@@H](CC(C)C)C(=O)NCC(=O)NCC(=O)N[C@@H](CC(N)=O)C(=O)N[C@H](C(=O)O)C(C)C` [AKAWGIPPHVIPQIVPVRIRPLGGNV], for which the MIC amounted to 8.98 µM (≈ 25 µg/mL) in [1], 1.15 µM (≈ 3.2 µg/mL) in assay [2] and 8.98 µM (≈ 25 µg/mL) in assay [3].

`CC(C)C[C@H](NC(=O)[C@H](CC(C)C)NC(=O)[C@H](Cc1ccccc1)NC(=O)[C@@H]1CCCN1C(=O)[C@H](CC(C)C)NC(=O)[C@@H](N)Cc1ccccc1)C(=O)N[C@@H](CO)C(=O)N[C@@H](C)C(=O)N[C@@H](CC(C)C)C(=O)N1CCC[C@H]1C(=O)N[C@@H](CCCCN)C(=O)N[C@H](C(=O)N[C@@H](Cc1ccccc1)C(=O)N[C@H]1CSSC[C@@H](C(=O)O)NC(=O)[C@H](CCCCN)NC(=O)[C@H](CCCCN)NC(=O)[C@H](CO)NC(=O)[C@H](Cc2ccccc2)NC(=O)[C@H](Cc2ccccc2)NC1=O)C(C)C` [FLPFLLSALPKVFCFFSKKC]: the MIC was 32 µM (≈ 74.7 µg/mL) in [4], ≥ 43 µM in assay [1], 8 µM (≈ 18.7 µg/mL) in [2] and 16 µM (≈ 37.3 µg/mL) in [3].

Consider `CC[C@H](C)[C@H](NC(=O)[C@@H]1CCCN1C(=O)[C@H](CCCN=C(N)N)NC(=O)[C@@H]1CCCN1C(=O)[C@@H](NC(=O)[C@@H]1CCCN1C(=O)[C@H](CC(C)C)NC(=O)[C@@H](N)Cc1ccccc1)[C@@H](C)CC)C(=O)N[C@@H](CC(C)C)C(=O)N[C@@H](CC(C)C)C(=O)NCC(=O)N[C@@H](CC(C)C)C(=O)N[C@@H](CC(C)C)C(N)=O` [FLPIPRPILLGLL], for which the results for the MIC in assay [1], in assay [2] and in assay [3] were 17.1 µM (≈ 25 µg/mL), 6.84 µM (≈ 9.99 µg/mL) and 20.5 µM (≈ 30 µg/mL), respectively.

For the compound `CSCC[C@H](NC(=O)[C@@H](NC(=O)[C@H](CCCCN)NC(=O)[C@H](Cc1cnc[nH]1)NC(=O)[C@H](CC(C)C)NC(=O)CN)C(C)C)C(=O)N[C@@H](CCCN=C(N)N)C(=O)N[C@@H](CCC(=O)O)C(=O)N[C@H](C(=O)N[C@@H](CC(C)C)C(=O)NCC(=O)N[C@@H](Cc1ccc(O)cc1)C(=O)N[C@@H](CCC(=O)O)C(=O)N[C@@H](CCCN=C(N)N)C(=O)N[C@@H](CC(N)=O)C(=O)N[C@@H](CO)C(=O)N[C@@H](Cc1ccc(O)cc1)C(=O)N[C@@H](CCCCN)C(=O)N[C@@H](CCCCN)C(=O)N[C@@H](Cc1ccccc1)C(=O)N[C@@H](Cc1ccccc1)C(=O)N[C@@H](CC(C)C)C(=O)N[C@@H](CCCN=C(N)N)C(=O)O)C(C)C` [GLHKVMREVLGYERNSYKKFFLR], the MIC in assay [1] came to 2.61 µM (≈ 7.5 µg/mL); in [2], 1.29 µM (≈ 3.7 µg/mL); in assay [3], 10.4 µM (≈ 30 µg/mL).

Take `CC[C@H](C)[C@H](NC(=O)[C@H](CC(C)C)NC(=O)[C@H](CCCCN)NC(=O)CNC(=O)[C@H](CC(C)C)NC(=O)[C@@H](NC(=O)[C@H](CCCCN)NC(=O)[C@H](CO)NC(=O)[C@H](Cc1c[nH]c2ccccc12)NC(=O)[C@H](CCSC)NC(=O)CN)[C@@H](C)CC)C(=O)N[C@@H](CCCN=C(N)N)C(N)=O` [GMWSKILGKLIR]: the MIC in the assay with Escherichia coli B came out at 3.7 µM (≈ 5.18 µg/mL); with Pseudomonas aeruginosa, 26.3 µM (≈ 36.8 µg/mL); against Bacillus subtilis 168, 0.9 µM (≈ 1.26 µg/mL); in the assay on Staphylococcus aureus, 9.2 µM (≈ 12.9 µg/mL).

As for `CC[C@H](C)[C@H](NC(=O)[C@H](CC(C)C)NC(=O)[C@@H]1CCCN1C(=O)CNC(=O)[C@H](CC(C)C)NC(=O)[C@@H](NC(=O)[C@H](CCCCN)NC(=O)[C@H](CO)NC(=O)[C@H](Cc1c[nH]c2ccccc12)NC(=O)[C@H](CCSC)NC(=O)CN)[C@@H](C)CC)C(=O)N[C@@H](CCCN=C(N)N)C(N)=O` [GMWSKILGPLIR], the MIC is 30 µM (≈ 41.1 µg/mL) against Escherichia coli B, > 100 µM with Pseudomonas aeruginosa, 3.6 µM (≈ 4.93 µg/mL) against Bacillus subtilis 168 and > 100 µM with Staphylococcus aureus.

In the case of `CC[C@H](C)[C@H](NC(=O)[C@H](CC(C)C)NC(=O)[C@H](Cc1cnc[nH]1)NC(=O)CNC(=O)[C@H](CC(C)C)NC(=O)[C@@H](NC(=O)[C@H](CCCCN)NC(=O)[C@H](CO)NC(=O)[C@H](Cc1c[nH]c2ccccc12)NC(=O)[C@@H](N)CCSC)[C@@H](C)CC)C(=O)N[C@@H](CCCN=C(N)N)C(N)=O` [MWSKILGHLIR], the MIC in the assay with Escherichia coli B is ≥ 50 µM; against Pseudomonas aeruginosa, > 100 µM; against Bacillus subtilis 168, 5 µM (≈ 6.76 µg/mL); against Staphylococcus aureus it was 45 µM (≈ 60.9 µg/mL).

Consider `CC[C@H](C)[C@H](NC(=O)[C@H](CCCN=C(N)N)NC(=O)[C@H](CCCN=C(N)N)NC(=O)[C@@H]1CCCN1C(=O)[C@@H]1CCCN1C(=O)[C@H](CCCN=C(N)N)NC(=O)[C@@H]1CCCN1C(=O)[C@H](CCCN=C(N)N)NC(=O)[C@@H]1CCCN1C(=O)[C@H](CC(C)C)NC(=O)[C@H](Cc1ccc(O)cc1)NC(=O)[C@@H]1CCCN1C(=O)[C@@H]1CCCN1C(=O)[C@H](CCCCN)NC(=O)[C@H](CC(=O)O)NC(=O)[C@@H]1CCCN1)C(=O)N[C@@H](Cc1ccc(O)cc1)C(=O)N[C@@H](CC(N)=O)C(=O)N[C@@H](CCCN=C(N)N)C(N)=O` [PDKPPYLPRPRPPRRIYNR], for which the MIC in the assay with Escherichia coli JW0013 was determined as 2.01 µM (≈ 4.8 µg/mL).

In the case of `CC[C@H](C)[C@H](NC(=O)[C@H](CCC(N)=O)NC(=O)[C@H](CCCCN)NC(=O)[C@H](Cc1c[nH]c2ccccc12)NC(=O)[C@H](CC(C)C)NC(=O)[C@H](CCC(N)=O)NC(=O)[C@@H]1CCCN1C(=O)[C@H](CC(C)C)NC(=O)[C@H](CCCCN)NC(=O)[C@H](C)NC(=O)[C@H](CCC(=O)O)NC(=O)[C@H](CCCCN)NC(=O)[C@@H](NC(=O)CNC(=O)[C@@H](NC(=O)[C@@H](NC(=O)[C@@H](NC(=O)[C@@H](N)CO)[C@@H](C)CC)[C@@H](C)CC)[C@@H](C)O)[C@@H](C)O)C(=O)N[C@@H](C)C(=O)N[C@H]1CSSC[C@@H](C(=O)O)NC(=O)[C@H]([C@@H](C)O)NC(=O)[C@H](CC(N)=O)NC(=O)[C@H](Cc2ccc(O)cc2)NC(=O)[C@H](CC(C)C)NC(=O)[C@H](CCCN=C(N)N)NC1=O` [SIITGTKEAKLPQLWKQIACRLYNTC], the MIC against Bacillus subtilis was ≥ 40.3 µM; in [1] it was 10.1 µM (≈ 30 µg/mL); in assay [2], 5.03 µM (≈ 15 µg/mL); in assay [3] it was 20.1 µM (≈ 60 µg/mL).

For `CC[C@H](C)[C@H](NC(=O)[C@H](CCCN=C(N)N)NC(=O)[C@H](CCCN=C(N)N)NC(=O)[C@@H]1CCCN1C(=O)[C@@H]1CCCN1C(=O)[C@H](CCCN=C(N)N)NC(=O)[C@H](CCCCN)NC(=O)[C@H](CCCN=C(N)N)NC(=O)[C@@H]1CCCN1C(=O)[C@H](CC(C)C)NC(=O)[C@H](CCCN=C(N)N)NC(=O)[C@@H]1CCCN1C(=O)[C@H](CCCCN)NC(=O)[C@H](CCCCN)NC(=O)[C@H](CC(=O)O)NC(=O)[C@@H](N)C(C)C)C(=O)N[C@@H](Cc1ccc(O)cc1)C(=O)N[C@@H](CC(N)=O)C(=O)N[C@@H](CCCN=C(N)N)C(N)=O` [VDKKPRLPRKRPPRRIYNR], the minimal inhibitory concentration (MIC) against Escherichia coli JW0013 was 0.695 µM (≈ 1.7 µg/mL).

Consider `CC[C@H](C)[C@H](NC(=O)[C@H](CCCN=C(N)N)NC(=O)[C@H](CCCN=C(N)N)NC(=O)[C@@H]1CCCN1C(=O)[C@@H]1CCCN1C(=O)[C@H](CCCN=C(N)N)NC(=O)[C@@H]1CCCN1C(=O)[C@H](CCCN=C(N)N)NC(=O)[C@@H]1CCCN1C(=O)[C@H](CC(C)C)NC(=O)[C@@H](NC(=O)[C@@H]1CCCN1C(=O)[C@@H]1CCCN1C(=O)[C@H](CCCCN)NC(=O)[C@H](CC(=O)O)NC(=O)[C@@H](N)C(C)C)C(C)C)C(=O)N[C@@H](Cc1ccc(O)cc1)C(=O)N[C@@H](CC(N)=O)C(=O)N[C@@H](CCCN=C(N)N)C(N)=O` [VDKPPVLPRPRPPRRIYNR], for which, in the assay on Escherichia coli JW0013, the MIC was determined as 2.06 µM (≈ 4.8 µg/mL).

Take `CC[C@H](C)[C@H](NC(=O)[C@H](CCCCN)NC(=O)[C@H](Cc1c[nH]c2ccccc12)NC(=O)[C@H](CCCCN)NC(=O)[C@@H](NC(=O)[C@H](CCCCN)NC(=O)[C@H](Cc1c[nH]c2ccccc12)NC(=O)[C@H](CCCCN)NC(=O)[C@@H](NC(=O)[C@H](CCCCN)NC(=O)[C@@H](N)Cc1c[nH]c2ccccc12)[C@@H](C)CC)[C@@H](C)CC)C(=O)N[C@@H](CCCCN)C(N)=O` [WKIKWKIKWKIK]: the MIC against Acinetobacter baumannii is 1.41 µM (≈ 2.38 µg/mL); in the assay on Escherichia coli UB1005 it was 2 µM (≈ 3.37 µg/mL); in assay [5], 2 µM (≈ 3.37 µg/mL); in the assay on Escherichia coli it was 2 µM (≈ 3.37 µg/mL); in assay [6], 2 µM (≈ 3.37 µg/mL); against Pseudomonas aeruginosa it was 4 µM (≈ 6.74 µg/mL). For the same compound, the MIC (in [7]; against Staphylococcus aureus; in assay [3]; in assay [8]) was 2 µM (≈ 3.37 µg/mL) in each case.

For the origin of these results see DBAASP.
